“Also recorded” adds a separate entry of the source.
Legend:
P. aeruginosa PA01 [1] = test: Biofilm formation under static conditions, CLSM with Live/Dead staining; type: cell-based, Pseudomonas aeruginosa; conditions: for density of attached cells (biofilm) / mortality of the bacterial cells: 50 μM; for density of attached cells (biofilm): 18 h static incubation at 37° C.; for mortality of the bacterial cells: compared with DMSO control
Experimental: (§1) FIGS. 1A-B show prevention of biofilm formation. Confocal laser scanning micrographs (CLSM) of P. aeruginosa PA01 (A) and A. baumannii (B) formed in glass-bottomed 96 well plates after 18 h of static incubation at 37° C. Cultures were grown in the presence of either 50 μM DIV or NN, or an equivalent amount of DMSO for control. Biofilms were stained using the Live/Dead bacterial viability kit. Live, dead and total bio-volumes (μm^3/μm^2) were calculated based on image analysis and data from the IMARIS software. Bars indicate standard deviations for triplicate sets of experiments.
(§2) FIGS. 5A-D show biofilm attenuation of the pathogens P. stuartii (A), S. marcescens (B), A. baumannii (C) and P. aeruginosa PA01 (D). Cultures were grown in the presence of either 50 μM DIM or an equivalent amount of DMSO for control. Biofilms were stained with the LIVE/DEAD bacterial viability kit. For each species and per treatment, live, dead and total bio-volumes (μm^3/μm^2) were calculated based on image analysis and data from the IMARIS software, and % biofilm inhibition was calculated based on live bio-volumes. The results are the average values of analysis of at least three micrographs.
(§3) Bioflims of P. aeruginosa and A. baumanii that were developed on glass slides were determined using confocal scanning laser microscopy (CSLM) (FIG. 1). Accordingly, the density of the biofilms prior to and following treatment by NN and DIV was measured.
(§4) The current study investigated the influence of DIM on the biofilm formation process and on the destruction of existing biofilms of several pathogenic gram-negative bacterial strains.

A. baumannii [2] = test: as above; type: cell-based, Acinetobacter baumannii; conditions: for density of attached cells (biofilm) / mortality of the bacterial cells: 50 μM; for density of attached cells (biofilm): 18 h static incubation at 37° C.; for mortality of the bacterial cells: compared with DMSO control
Experimental: as §1, §2, §3, §4

[3] = system: P. aeruginosa PA01 mature biofilm; test: Destruction of mature biofilm in flow cell, CLSM; type: cell-based, Pseudomonas aeruginosa; conditions: 72 h biofilm, then 48 h treatment, 50 μM compound, 20 μg/ml tobramycin
Experimental: FIG. 2 depicts destruction of P. aeruginosa PA01 mature biofilm; biofilm formed in a flow cell after 72 h of incubation at 37° C. and 48 h more in the presence of 50 μM NN, 20 μg/ml Tobramycin, and 50 μM NN with 20 μg/ml tobramycin. Biofilms were stained with Live/Dead bacterial viability kit. Quantification of BioVolume; Live, dead and total bio-volumes (μm^3/μm^2) calculated based on image analysis and data from the IMARIS software. The images were acquired from three different areas in each treatment.
FIG. 6. depicts destruction of mature, differentiated biofilm of P. aeruginosa PA01. Statistical analysis of CSLM images of biofilm formed in a flow system after 120 h, and with supplementation of 50 μM DIM, 20 μg/ml Tobramycin and a combined treatment of 50 μM DIM with 20 μg/ml Tobramycin. Biofilms were stained with the LIVE/DEAD bacterial viability kit. Quantification of bio-volume: live, dead and total bio-volumes (μm^3/μm^2) were calculated based on image analysis and data from the IMARIS software.
Dynamic growth conditions in flow cell systems are considered to be representative of the real conditions in humeral tissues, where the pathogen thrives in enriched settings. […] Once the efficiency of the new compounds was tested, we proceeded to assess the efficacy of adding antibiotic treatment to the novel compounds to eradicate biofilm (FIG. 2). […] On the other hand, when treated by both the antibiotic and the NN, the biofilm was eradicated and the bacterial cells died.
To investigate the combined destructive effect of the biofilm inhibitor compound and an antibiotic, P. aeruginosa PA01 was cultured for 72 h in the continuous flow system until a mature biofilm had been established Immediately after its establishment, the biofilm was challenged with DIM and/or the antibiotic tobramycin, the known activity of which is protein synthesis inhibition (FIG. 6).

P. aeruginosa PA01 [4] = test: Virulence factor production, spectrophotometry of cell-free culture; type: cell-based, Pseudomonas aeruginosa; conditions: for virulence factors production: P. aeruginosa PA01 grown with 50 μM compound
Experimental: (§5) FIGS. 3A-B show effect on, P. aeruginosa PA01 pathogenesis. (A) Inhibition of virulence factors production in P. aeruginosa PA01, which were grown in the presence of 50 μM NN or DIV. Tetracycline is used as positive control. Results are based on OD measurements distinctive to each factor and normalized to bacterial growth at OD600 nm. Error bars represent SD of three independent repetitions. (B) C. elegans killing assay assed by SYTOX Orange stain within 24 h.
Results are based on OD measurements specific to each factor and normalized to the growth OD of 600 nm. Bars indicate standard deviations for triplicate sets of experiments.
(§6) Driven by an arsenal of virulence factors added to the biofilm mode of growth, P. aeruginosa PA01 pathogenesis depends on the type of the infection. Therefore, both compounds were tested for their abilities to suppress prominent virulence determinants (FIG. 3A). […] Measuring nematode survivorship following exposure to P. aeruginosa in the absence and presence of modulating compounds, therefore, provides a good model for assessing the effectiveness of the novel compounds on the pathogenesis of the bacteria.
The basis of P. aeruginosa pathogenicity is an arsenal of virulence determinants designed for survival and proliferation in the host that enable bacterial invasion and the subsequent establishment of infection. The success of this microorganism is largely due to its ability to form intractable biofilms and to produce myriad virulence factors controlled by a quorum-sensing (QS) system.

A. baumannii [5] = test: Biofilm formation in dynamic flow-cell system; type: cell-based, Acinetobacter baumannii
From the text: (§7) In addition, we tested the anti-biofilm properties of the well-studied anti-cancer compound 3,3′-Diindolylmethane (DIM), a metabolite found in cruciferous vegetables. Inhibition of biofilm establishment by DIM was investigated with different clinical pathogens under static conditions. Biofilm formation by A. baumannii and P. aeruginosa was further tested in a dynamic flow-cell system, in which biofilm inhibition levels of 86% and 76% were obtained, respectively. […] Further examination of the hypothesized synergistic effect obtained by combining conventional antibiotics with the DIM compound may offer a promising strategy for the eradication of biofilm complexes.

P. aeruginosa = test: Biofilm formation in dynamic flow-cell system; type: cell-based, Pseudomonas aeruginosa
From the text: as §7

S. marcescens = test: Biofilm formation under static conditions, CLSM; type: cell-based, Serratia marcescens; conditions: 50 μM DIM
Experimental: as §2, §4

P. stuartii = test: Biofilm formation under static conditions, CLSM; type: cell-based, Providencia stuartii; conditions: 50 μM DIM
Experimental: as §2, §4

Erwinia carotovora = test: Biofilm formation by plant-associated bacteria, static 96 well plates, CLSM; type: cell-based; conditions: 50 μM, 18 h static
Experimental: Biofilm formed in glass-bottomed 96 well plates after 18 h of static incubation at 37° C. was investigated by confocal laser scanning micrographs (CLSM). Cultures were grown in the presence of either 50 μM DIM or NN, or an equivalent amount of DMSO for control. Biofilms were stained using the Live/Dead bacterial viability kit. Live, dead and total bio-volumes (μm^3/μm^2) were calculated based on image analysis and data from the IMARIS software.
Erwinia carotovora was cultured in glass-bottomed 96 well plates for 18 h in static conditions. The growth medium was provided with either 50 μM DIM or NN and the resulted biofilms was investigated using CSLM.

P. larvae = conditions: agar diffusion method (Brenda et al., 2010); cited from earlier work
[6] = system: Caenorhabditis elegans infected by Pseudomonas aeruginosa; test: C. elegans killing assay; type: in vivo; conditions: SYTOX Orange stain within 24 h
Experimental: as §5, §6

[7] = system: A549 Human Lung Cell line infected by P. aeruginosa; test: Cytotoxicity and apoptosis of A549 cells infected with pre-treated bacteria, calcein staining; type: cell-based; conditions: bacteria pre-treated with compound, 24 h
Experimental: FIGS. 4A-B show reduced adhesion and virulence of P. aeruginosa PA01 in human A549 lung cells model. (A) Cytotoxicity effect and apoptosis of A549 cells by P. aeruginosa PA01 pre-treated with DIV or NN during 24 h. The infection progress was monitored by calcein staining using Operetta screening system. All the experiments were performed in triplicates. (B) Adhesion of P. aeruginosa PA01 (5×10^7 CFU/ml) pre-treated with DIV or NN to A549 cells for 1 hr of incubation. Excess bacteria were removed and the released cells were plated followed CFU counts determination.
In order to test the possible effects of these compounds on higher organisms, we tested NN and DIV on A549 Human Lung Cell line infected by P. aeruginosa. Additional tests were carried out for NN and DIV to assess the effect of this compound to enhance the survival of A549 cells during infection with P. aeruginosa PA01. […] Due the fact that adherence to a humeral cell is considered a crucial step in the bacterial infection initiation process, P. aeruginosa PA01 pre-treated with DIV or NN was tested for its adherence potency to lung epithelial cells A549.

## c1ccc2c(Cc3c[nH]c4ccccc34)c[nH]c2c1 [DIM, di(1H-indol-3-yl)methane]
P. aeruginosa PA01 [1]; 50 μM DIM, static
  biofilm formation compared to control: substantially reduced biofilms
A. baumannii [2]; 50 μM DIM, static
  biofilm formation compared to control: substantially reduced biofilms
[3]
  destruction of mature biofilm: destruction of existing, stable biofilm
P. aeruginosa PA01 [4]; 50 μM DIM
  reduction in chitinase production: 35%
  reduction in elastase: 19%
  reduction in protease: 10%
  reduction in pyocyanin: 21%
  reduction in pyoverdine: 20%
A. baumannii [5]
  biofilm inhibition levels: 86%
P. aeruginosa
  biofilm inhibition levels: 76%
S. marcescens
  biofilm formation compared to control: substantially reduced biofilms
P. stuartii
  biofilm formation compared to control: substantially reduced biofilms
Erwinia carotovora
  biofilm formation / density of attached cells: prevents biofilm formation
P. larvae
  antibiotic activity against P. larvae: antibiotic activity

## c1ccc2c(c1)CC(c1cc3ccccc3[nH]1)N2 (centres unmarked) [DIV, 2-(indolin-2-yl)-1H-indole]
P. aeruginosa PA01 [1]
  density of attached cells (biofilm): reduction of density of attached cells
  mortality of the bacterial cells: negligible mortality
A. baumannii [2]
  density of attached cells (biofilm): smaller effects
  mortality of the bacterial cells: negligible mortality
P. aeruginosa PA01 [4]
  virulence factors production: reduced significantly
[6]
  survivorship of C. elegans following exposure to P. aeruginosa: pathogenesis of P. aeruginosa is reduced
[7]
  cytotoxicity effect and apoptosis of A549 cells by pre-treated P. aeruginosa PA01: suspended the cytotoxicity effect and apoptosis killing

## c1ccc2c(c1)ccn2-n1ccc2ccccc21 [NN, 1,1′-Biindole]
P. aeruginosa PA01 [1]
  density of attached cells (biofilm): reduction of density of attached cells; also recorded: most effective
  mortality of the bacterial cells: negligible mortality
A. baumannii [2]
  density of attached cells (biofilm): smaller effects
  mortality of the bacterial cells: negligible mortality
[3]
  destruction of mature biofilm: reduced but not eradicated
P. aeruginosa PA01 [4]
  virulence factors production: reduced significantly
[6]
  survivorship of C. elegans following exposure to P. aeruginosa: significantly increased survivorship
[7]
  cytotoxicity effect and apoptosis of A549 cells by pre-treated P. aeruginosa PA01: suspended the cytotoxicity effect and apoptosis killing
Erwinia carotovora
  biofilm formation / density of attached cells: prevents biofilm formation

## NC[C@H]1O[C@H](O[C@H]2[C@H](O)[C@@H](O[C@H]3O[C@H](CO)[C@@H](O)[C@H](N)[C@H]3O)[C@H](N)C[C@@H]2N)[C@H](N)C[C@@H]1O [tobramycin, Tobramycin, reference compound]
[3]
  destruction of mature biofilm: dense biofilm similar to that of the control
[3]; listed as antibiotic
  destruction of mature biofilm: little loss of biofilm

From US11096925B2, “Indole derivatives for biofilm disruption and inhibition” (LIFE MATTERS LTD., priority 2015, dated 2021)
